The test system of one data set is tubulin. Description: Fluorescence-based tubulin polymerization assay (MPA; enhancement for paclitaxel, inhibition for vinblastine). Type of data set: biochemical. An excerpt: Drug-linker constructs may further be screened using functional assays predictive of biological activity. […] Tubulin assembly or inhibition thereof may be monitored by fluorescence using the CytoDYNAMIX Screen™ 10 kit available from Cytoskeleton (1830 S. Acoma St., Denver, Colo.). […] Emission is monitored at 405 nm with excitation at 360 nm. […] Tubulin assembly or inhibition may also be monitored by light scattering which is approximated by the apparent absorption at 350 nm. For paclitaxel drug conjugates BSA is employed to prevent aggregation and glycerol, which is a tubulin polymerization enhancer, is omitted from the kit to increase the signal to noise ratio.
The assay kit (#BK011) was purchased from Cytoskeleton (Denver, Colo.). The assays were carried out according to the manufacturer's instructions, except that 1 mg/ml BSA (Sigma #A3059) was included in all assays. […] Parent drugs and conjugates were tested at 0.75, 1.5, 3 and 10 micromolar final concentration and results represent a comparison of conjugate and parent drug curves obtained from the linear range of the dose responses.
(±SD) represent the average of all tests carried out for all lots of a given compound.

The next data set deals with MCF-7 breast carcinoma. Description: Cytotoxicity assay (monolayer), MCF-7.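 Further: cells treated 72 h with 6-8 compound doses versus DMSO vehicle controls, EC50 fitted by 4-parameter dose-response curves, averaged across all tests and lots.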 Type of data set: cell-based. As to conditions: MCF7, ML (monolayer); read-out: MCF7 (EC50 Ave) ML.
Data set [1] has as its system HT-29 colorectal carcinoma. Description: Cytotoxicity assay (monolayer), HT-29.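 Further: monolayer cultures tested in triplicate, compound exposure for three days against DMSO vehicle controls, EC50 fitted from dose-response curves and averaged across all tests and lots.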 Format: cell-based. As to conditions: HT29, ML (monolayer); read-out: HT29 (EC50 Ave) ML.
The subject of a further data set is HUVEC. Description: Cytotoxicity assay (monolayer), HUVEC. Format: cell-based. As to conditions: ML (monolayer), read-out: HUVEC (EC50 Ave) ML.
For data set [2], the system named is Normal human foreskin fibroblasts (HFF). As to conditions: read-out: HFF (EC50 Ave) ML; HFF, ML (monolayer).
The subject of the next data set is MCF-7 cells. As to conditions: read-out: MCF7 (EC50 Ave) SA; MCF7, SA (soft agar).
The next data set relates to HT-29 cells. As to conditions: read-out: HT29 (EC50 Ave) SA; HT29, SA (soft agar).
The target of another data set is T1, Human Src (Homo sapiens, UniProt P12931).
T1 construct: purchased Upstate (Charlottesville, Va.) 14-326
Description: Src kinase assay (PKLight ATP utilization, substrate phosphorylation as % of parent peptide). Type of data set: biochemical. How it is done:
Another test may involve monitoring the consumption of ATP. For example, ATP concentrations at time 0 or after 4 hour incubation may be monitored by luciferase reaction (PKLight kit obtained from Cambrex Corporation, One Meadowlands Plaza, East Rutherford, N.J. 07073), which generate a luminescence readout in the presence of ATP. Assays are initiated by mixing a kinase and a peptide in the presence of 40 μM ATP. After 4 hour of incubation at 30° C., PKLight reagent is added and mixed well, and luminescence readout measured. The rate of peptide phosphorylation is then directly related to the rate of decrease in the observed luminescence. Based on the first test, linkers of appropriate lengths and peptides with an effective amount of kinase activity which may be expected to be retained in the drug conjugate may be found.
Human Src (#14-326) and Akt (#14-276) kinases were purchased from Upstate (Charlottesville, Va.). Kinase reactions were carried out in 50 μl kinase reaction cocktail (25 mM Tris-HCl, pH 7.5, 5 μM β-glycerophosphate, 2 mM DTT, 0.1 mM Na3VO4, 10 mM MgCl2, 1 mg/ml BSA, […], 0.5 to 1.0 units enzyme). Substrates (peptide or drug-peptide conjugate in […]) were added (25, 50 and 100 μM) and the reaction was incubated for 2-5 hours at 30° C. PKLight reagent (23 μl) (Cambrex BioSciences, Rockland, Me.) was mixed with […] of the above kinase reaction and ATP utilization relative to no substrate and no ATP controls was determined by measuring luminescence with a SpectraMax Gemini EM plate reader (Molecular Devices, Sunnyvale, Calif.). Peptide substrates for Src and Akt have been described. For examples, see Lou et al. Letters in Peptide Science, 2, 289-296 (1995); Lou et al. Bioorganic & Medicinal Chemistry, 4, 677-682 (1996); Alessi et al. FEBS Letters, 399, 333-338 (1996). Substrate phosphorylation potential was determined from the linear portion of the substrate concentration dose response as a percentage of the activity observed with the parent peptide used for drug conjugation.

Primed or numbered codes have the meaning given here. * marks the point of attachment. 3Am‑VBL = vinblastine (VBL) conjugate; PEG(11) = PEG(11) linker; PEG(29) = PEG(29) linker; PEG(11)″ = PEG11 linker; 3Am = not defined here; Cbz = O=C(OCc1ccccc1)*; Boc = CC(C)(C)OC(=O)*; Piv = CC(C)(C)C(=O)*; VBL = vinblastine

As to `CC[C@]1(O)C[C@@H]2CN(CCc3c([nH]c4ccccc34)[C@@](C(=O)OC)(c3cc4c(cc3OC)N(C)[C@H]3[C@@](O)(C(=O)NCCCCCCCCCCCCN)[C@H](O)[C@]5(CC)C=CCN6CC[C@]43[C@@H]65)C2)C1` [VBL-3Am-ALK(12)-NH2], the “Ave. MPA Act.” value with tubulin is “B (B=50-80)”. The EC50 (in the data set with MCF-7 breast carcinoma; in data set [1]; with HUVEC; in data set [2]; in the data set with MCF-7 cells; with HT-29 cells) was below 20 nM throughout.

With `CC(=O)O[C@H]1C(=O)[C@]2(C)[C@@H](OC(=O)CCCCCN)C[C@H]3OC[C@@]3(OC(C)=O)[C@H]2[C@H](OC(=O)c2ccccc2)[C@]2(O)C[C@H](OC(=O)[C@H](O)[C@@H](NC(=O)c3ccccc3)c3ccccc3)C(C)=C1C2(C)C` [PXL-7Es-ALK(5)-NH2], in the data set with tubulin, the “Ave. MPA Act.” value is on record as “A (A<50)”. Besides, the EC50 is 100 to 1000 nM in the data set on MCF-7 breast carcinoma; 100 to 1000 nM in data set [1]; below 20 nM in the data set on HUVEC; below 20 nM in data set [2]; below 20 nM with MCF-7 cells; below 20 nM in the data set on HT-29 cells.

In the case of “CH3O(CH2CH2O)3CH2CH2(C═O)YIYGSFS-PEG(11)-3Am-VBL (N-methoxy-PEG acyl; PEG(11); vinblastine conjugate)”, in the data set with Human Src, the “Average src kinase activity” value is reported as “C (C>40)”. Further, the “Ave. MPA Act.” value in the data set with tubulin was “C (C>80)”. The EC50 (in the data set with MCF-7 breast carcinoma; in data set [1]; with HUVEC; in data set [2]) was above 100 nM each time.

Turning to “CH3O(CH2CH2O)3CH2CH2(C═)YIYGSFH-PEG(11)-3Am-VBL (N-methoxy-PEG acyl; PEG(11); vinblastine conjugate)”, in the data set with Human Src, the “Average src kinase activity” value was “C (C>40)”. Also, the “Ave. MPA Act.” value in the data set with tubulin was “B (B=50-80)”. Moreover, the concentration for a half-maximal effect (EC50) (in the data set on MCF-7 breast carcinoma; in data set [1]; with HUVEC; in data set [2]) was above 100 nM each time.

“CBz-RPRTSSF-PEG(11)-3Am-VBL (N-CBz; PEG(11) linker; vinblastine conjugate)”: the EC50 is below 20 nM in the data set with MCF-7 breast carcinoma, below 20 nM in data set [1] and 20 to 100 nM in the data set on MCF-7 cells.

As to “H-GIYWHHY-PEG(11)-3Am-VBL (H-GIYWHHY-{PEG(11)-3Am-VBL}; reading uncertain)”, in the data set with Human Src, the “Average src kinase activity” value is on record as “B (B=20-40)”. In the data set with tubulin, the “Ave. MPA Act.” value was “B (B=50-80)”. The EC50 (in the data set on MCF-7 breast carcinoma; in data set [1]; with HUVEC; in data set [2]) was above 100 nM each time.

Take “Pv-EYIYGSFR-PEG(11)-3Am-VBL (Piv-EYIYGSFR-{PEG(11)-3Am‑VBL})”: the “Average src kinase activity” value with Human Src was “C (C>40)”. The “Ave. MPA Act.” value in the data set with tubulin was “C (C>80)”. Moreover, the EC50 (in the data set on MCF-7 breast carcinoma; in data set [1]; in the data set with HUVEC; in data set [2]) was above 100 nM each time.

On to “Ac-EYIYGSFR-PEG(13)-10Ca-PXL (N-acetyl, PEG13, paclitaxel conjugate)”, for which, in the data set with Human Src, the “Average src kinase activity” value is reported as “B (B=20-40)”. Further, the “Ave. MPA Act.” value in the data set with tubulin was “B (B=50-80)”. In addition, the EC50 (in the data set with MCF-7 breast carcinoma; in data set [1]; with HUVEC; in data set [2]) was above 100 nM throughout.

Regarding “BOC-YIYGSFS-PEG(11)-3Am-VBL (N-BOC; PEG(11) linker; vinblastine conjugate)”, the “Average src kinase activity” value in the data set with Human Src is given as “C (C>40)”. Further, the “Ave. MPA Act.” value in the data set on tubulin is on record as “C (C>80)”. Further, the EC50 (with MCF-7 breast carcinoma; in data set [1]; with HUVEC; in data set [2]) was above 100 nM throughout.

For the molecule “Ac-YIFGSFK(BOC)-PEG(11)-3Am-VBL (Ac-YIFGSFK(Boc)-{PEG(11)″-3Am-VBL}; reading uncertain; also: printed as Ac-YIFGSFK(BOC)-PEG(11)-3Am-VBL)”, in the data set with Human Src, the “Average src kinase activity” value was “B (B=20-40)”. The “Ave. MPA Act.” value in the data set on tubulin was “B (B=50-80)”. For the same molecule, the concentration giving a half-maximal response (EC50) (in the data set on MCF-7 breast carcinoma; in data set [1]; in the data set on HUVEC; in data set [2]) was above 100 nM in each case.

In the case of “H-YIYGSFK-PEG(11)-3Am-VBL (H-YIYGSFK-{PEG(11)-3Am-VBL}; reading uncertain)”, the “Average src kinase activity” value with Human Src is “C (C>40)”. In addition, the “Ave. MPA Act.” value in the data set on tubulin was “B (B=50-80)”. In addition, the EC50 was above 100 nM in the data set on MCF-7 breast carcinoma, above 100 nM in data set [1], above 100 nM with HUVEC and 20 to 100 nM in data set [2].

For the molecule “Ac-YIYGSFH-PEG(11)-3Am-VBL (N-acetyl; PEG(11) linker; vinblastine conjugate)”, the “Average src kinase activity” value with Human Src was “C (C>40)”. Also, in the data set on tubulin, the “Ave. MPA Act.” value is recorded as “C (C>80)”. In addition, the EC50 (with MCF-7 breast carcinoma; in data set [1]; in the data set on HUVEC; in data set [2]) was above 100 nM in each case.

As to CBz-E(Bzl)YIFGSFK(BOC)-PEG(11)-3Am-VBL, in the data set with Human Src, the “Average src kinase activity” value is listed as “A (A<20)”. Further, the “Ave. MPA Act.” value with tubulin is listed as “A (A<50)”. For the same molecule, the EC50 with MCF-7 breast carcinoma was below 20 nM; in data set [1], above 100 nM; with HUVEC it was above 100 nM; in data set [2], above 100 nM.

As for “CBz-YIYGSFK(CBz)-PEG(11)-3Am-VBL (Cbz-YIYGSFK(Cbz)-{PEG(11)-3Am-VBL}; reading uncertain; also: printed as CBz-YIYGSFK(CBz)-PEG(11)-3Am-VBL)”, the “Average src kinase activity” value with Human Src was “A (A<20)”. In addition, the “Ave. MPA Act.” value with tubulin is “B (B=50-80)”. For the same molecule, the EC50 in the data set with MCF-7 breast carcinoma was 20 to 100 nM; in data set [1], above 100 nM; in the data set with HUVEC, 20 to 100 nM; in data set [2], 20 to 100 nM.

“H-YIYGSFK-PEG(29)-3Am-VBL x 2TFA (H-YIYGSFK-{PEG(29)-3Am-VBL}; reading uncertain; also: 2TFA salt)”: in the data set with Human Src, the “Average src kinase activity” value was “A (A<20)”. Moreover, the “Ave. MPA Act.” value with tubulin is reported as “A (A<50)”. For the same molecule, the EC50 in the data set with MCF-7 breast carcinoma is below 20 nM; in data set [1], 20 to 100 nM; in the data set with HUVEC it was above 100 nM; in data set [2], 20 to 100 nM.

Take `CC(=O)O[C@@]12CO[C@@H]1C[C@H](O)[C@@]1(C)C(=O)[C@H](O)C3=C(C)[C@@H](OC(=O)[C@H](O)[C@@H](NC(=O)c4ccccc4)c4ccccc4)C[C@@](O)([C@@H](OC(=O)c4ccccc4)[C@H]21)C3(C)C` [10 Deacetyl Taxol]: the EC50 with MCF-7 breast carcinoma was 20 to 100 nM; in data set [1] it was below 20 nM; in the data set with HUVEC, below 20 nM; in data set [2], below 20 nM; in the data set on MCF-7 cells, below 20 nM; in the data set with HT-29 cells, below 20 nM.

“BOC-YIYGSFK(BOC)-PEG(11)-3Am-VBL (N-BOC; BOC side chain; PEG(11); vinblastine conjugate)”: the “Average src kinase activity” value with Human Src is on record as “A (A<20)”. For the same molecule, the “Ave. MPA Act.” value in the data set on tubulin is “B (B=50-80)”. Moreover, the EC50 was 20 to 100 nM in the data set on MCF-7 breast carcinoma, 20 to 100 nM in data set [1], above 100 nM with HUVEC and above 100 nM in data set [2].

With “Ac-YIYGSFS-PEG(11)-3Am-VBL (N-acetyl; PEG(11) linker; vinblastine conjugate)”, the “Average src kinase activity” value in the data set with Human Src was “C (C>40)”. Further, the “Ave. MPA Act.” value in the data set on tubulin is listed as “B (B=50-80)”. The EC50 (in the data set on MCF-7 breast carcinoma; in data set [1]; with HUVEC; in data set [2]) was above 100 nM in each case.

As usually defined, the EC50 is the concentration needed to bring the measured effect to its halfway point.

The values are drawn from patent publication US20060234909A1, “Compositions and methods for increasing drug efficiency” (priority 2003, published 2006).
